Reference: ChEMBL document CHEMBL5352480, “Discovery of potent 1,1-diarylthiogalactoside glycomimetic inhibitors of Pseudomonas aeruginosa LecA with antibiofilm properties” (Eur J Med Chem, 2023)

Experiments:
Pseudomonas aeruginosa [1] = assay: Bactericidal activity against Pseudomonas aeruginosa PAO1; type: functional
Pseudomonas aeruginosa [2] = assay: Antibiofilm activity against Pseudomonas aeruginosa PA01 (CIP 104116) assessed as inhibition of biofilm formation at 0.08 to 5 mM measured after 2 to 24 hrs relative to control; type: functional; design: scale not given: the % may be the effect or the level left; settings: dose 0.08-5 mM, time 2-24 hrs
Pseudomonas aeruginosa [3] = assay: Antibacterial activity against Pseudomonas aeruginosa PAO1; type: functional
MRC5 [4] = assay: Cytotoxicity against human MRC5 cells assessed as reduction in cell viability at 1.25 mM measured after 24 hrs by MTT assay; type: toxicity, cell-based; settings: mrc5, 24 h, 1250 µM
[5] = molecular target: T1, PA-I galactophilic lectin (Pseudomonas aeruginosa (strain ATCC 15692 / PAO1 / 1C / PRS 101 / LMG12228)) (UniProt Q05097); assay: Binding affinity to Pseudomonas aeruginosa LecA expressed in Escherichia coli BL21 (DE3) cells assessed as change in enthalpy by isothermal titration calorimetry
T1 sequence (whole entry): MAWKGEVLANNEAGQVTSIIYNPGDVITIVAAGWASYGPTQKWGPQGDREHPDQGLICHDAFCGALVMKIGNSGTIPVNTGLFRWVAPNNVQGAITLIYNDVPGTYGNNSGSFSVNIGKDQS

MRC5 [6] = assay: Cytotoxicity against human MRC5 cells assessed as cell viability at 5 mM measured after 24 hrs by MTT assay; settings: mrc5, 24 h, 5000 µM
Pseudomonas aeruginosa [7] = assay: Antibiofilm activity against Pseudomonas aeruginosa PA01 (CIP 104116) assessed as inhibition of biofilm formation measured after 2 to 24 hrs; type: functional, organism-based; settings: dose 0.08-5 mM, time 2-24 hrs
[8] = molecular target: T1, PA-I galactophilic lectin (Pseudomonas aeruginosa (strain ATCC 15692 / PAO1 / 1C / PRS 101 / LMG12228)); assay: Binding affinity to Pseudomonas aeruginosa LecA expressed in Escherichia coli BL21 (DE3) cells assessed as change in entropy by isothermal titration calorimetry
MRC5 [9] = assay: Cytotoxicity against human MRC5 cells assessed as cell viability at 2.5 mM measured after 24 hrs by MTT assay; settings: mrc5, 24 h, 2500 µM
MRC5 [10] = assay: Cytotoxicity against human MRC5 cells assessed as reduction in cell viability at upto 1.25 mM measured after 24 hrs by MTT assay; type: toxicity, cell-based; settings: mrc5, 24 h, 1250 µM
[11] = molecular target: T2, PA-I galactophilic lectin (Pseudomonas aeruginosa (strain ATCC 15692 / PAO1 / 1C / PRS 101 / LMG12228), UniProt Q05097); assay: Binding affinity to Pseudomonas aeruginosa LecA expressed in Escherichia coli BL21 (DE3) cells assessed as dissociation constant by isothermal titration calorimetry
T2 sequence (Q05097 whole entry): T1 sequence (whole entry)

[12] = molecular target: T1, PA-I galactophilic lectin (Pseudomonas aeruginosa (strain ATCC 15692 / PAO1 / 1C / PRS 101 / LMG12228)); assay: Binding affinity to Pseudomonas aeruginosa LecA expressed in Escherichia coli BL21 (DE3) cells assessed as gibbs free energy change by isothermal titration calorimetry
[13] = molecular target: T2, PA-I galactophilic lectin; assay: Binding affinity to Pseudomonas aeruginosa LecA assessed as dissociation constant by isothermal titration calorimetry
Pseudomonas aeruginosa [14] = assay: Antibiofilm activity against Pseudomonas aeruginosa PA01 (CIP 104116) assessed as inhibition of biofilm formation at 5 mM measured after 2 to 24 hrs relative to control; type: functional; design: scale not given: the % may be the effect or the level left; settings: time 2-24 hrs
Pseudomonas aeruginosa [15] = assay: Antibiofilm activity against Pseudomonas aeruginosa PA01 (CIP 104116) assessed as log reduction of biofilm formation at 5 mM measured after 2 to 24 hrs; type: functional; settings: time 2-24 hrs
[16] = molecular target: T2, PA-I galactophilic lectin; assay: Binding affinity to Pseudomonas aeruginosa LecA

| deltaH [5] [kcal/mol] | TdeltaS [8] [kcal/mol] | Kd [11] [µM] | deltaG [12] [kcal/mol] | SMILES | further results |
| --- | --- | --- | --- | --- | --- |
| -8.6 | -1.58 | 6.9 | -7.03 | C=C(c1cc(OC)c(OC)c(OC)c1)c1ccc(OC)c(S[C@@H]2O[C@H](CO)[C@H](O)[C@H](O)[C@H]2OC(C)=O)c1 | – |
| – | – | – | – | CC(C)S[C@@H]1O[C@H](CO)[C@H](O)[C@H](O)[C@H]1O | Kd [13]: 32.4 µM |
| – | – | – | – | OC[C@H]1O[C@@H](OCc2cn([C@@H]3[C@H](O)[C@@H](O)[C@H](c4cn([C@H]5[C@H](O)[C@@H](O)[C@H](n6cc([C@@H]7O[C@H](CO)[C@@H](n8cc(CO[C@@H]9O[C@H](CO)[C@H](O)[C@H](O)[C@H]9O)nn8)[C@H](O)[C@H]7O)nn6)O[C@@H]5CO)nn4)O[C@@H]3CO)nn2)[C@H](O)[C@@H](O)[C@H]1O | Kd [13]: 0.028 µM |
| -21.6 | -12.3 | 0.16 | -9.25 | C=C(c1ccc(S[C@@H]2O[C@H](CO)[C@H](O)[C@H](O)[C@H]2O)cc1)c1cccc(S[C@H]2O[C@@H](CO)[C@@H](O)[C@@H](O)[C@@H]2O)c1 (single isomer, unassigned) | MBC (Pseudomonas aeruginosa [1]): > 5 mM; Activity (Pseudomonas aeruginosa [14]): 90%; MIC (Pseudomonas aeruginosa [3]): > 5 mM; viability (MRC5 [4]): 91.4%; viability (MRC5 [6]): 5.2%; viability (MRC5 [9]): 65.1%; log(activity) (Pseudomonas aeruginosa [15]): 1; Activity (MRC5 [10]): Non-Toxic |
| -10.1 | -3.39 | 11.9 | -6.72 | COc1ccc(S[C@@H]2O[C@H](CO)[C@H](O)[C@H](O)[C@H]2O)cc1 | – |
| – | – | – | – | Cc1cc(=O)oc2cc(S[C@@H]3O[C@H](CO)[C@H](O)[C@H](O)[C@H]3O)ccc12 | Kd [13]: 5.4 µM |
| -11.1 | -3.59 | 3 | -7.55 | C=C(c1ccc(OC)cc1)c1ccc(S[C@@H]2O[C@H](CO)[C@H](O)[C@H](O)[C@H]2O)cc1 | – |
| -9.85 | -2.99 | 9.2 | -6.86 | O=Cc1ccc(S[C@@H]2O[C@H](CO)[C@H](O)[C@H](O)[C@H]2O)cc1 | – |
| -11.9 | -4.28 | 2.45 | -7.65 | CC(C)c1ccc(S[C@@H]2O[C@H](CO)[C@H](O)[C@H](O)[C@H]2O)cc1 | – |
| -8.41 | -1.53 | 9 | -6.88 | C=C(c1ccc(S[C@@H]2O[C@H](CO)[C@H](O)[C@H](O)[C@H]2O)cc1)c1ccc2ccccc2c1 | – |
| -11.1 | -4.13 | 8.1 | -6.96 | C=C(c1ccc(OC)cc1)c1cccc(S[C@@H]2O[C@H](CO)[C@H](O)[C@H](O)[C@H]2O)c1 | – |
| – | – | – | – | CC(C)(C)c1cc2c(OCc3cn(CCOCCOCCO[C@@H]4O[C@H](CO)[C@H](O)[C@H](O)[C@H]4O)nn3)c(c1)Cc1cc(C(C)(C)C)cc(c1OCc1cn(CCOCCOCCO[C@@H]3O[C@H](CO)[C@H](O)[C@H](O)[C@H]3O)nn1)Cc1cc(C(C)(C)C)cc(c1OCc1cn(CCOCCOCCO[C@@H]3O[C@H](CO)[C@H](O)[C@H](O)[C@H]3O)nn1)Cc1cc(C(C)(C)C)cc(c1OCc1cn(CCOCCOCCO[C@@H]3O[C@H](CO)[C@H](O)[C@H](O)[C@H]3O)nn1)C2 | Kd [16]: 0.176 µM |

| SMILES | deltaH [5] [kcal/mol] | TdeltaS [8] [kcal/mol] | Kd [11] [µM] | deltaG [12] [kcal/mol] | further results |
| --- | --- | --- | --- | --- | --- |
| COc1ccc(C(=O)c2cc(OC)c(OC)c(OC)c2)cc1S[C@@H]1O[C@H](CO)[C@H](O)[C@H](O)[C@H]1O | -13 | -4.85 | 1.02 | -8.17 | MBC (Pseudomonas aeruginosa [1]): > 5 mM; Activity (Pseudomonas aeruginosa [2]): 100%; MIC (Pseudomonas aeruginosa [3]): > 5 mM; viability (MRC5 [4]): 61.5%; viability (MRC5 [6]): 7.1%; Activity (Pseudomonas aeruginosa [7]): Dose-Dependent Effect; viability (MRC5 [9]): 41.1%; Activity (MRC5 [10]): Non-Toxic |
